Test results taken from patent US10100077B2, “6-aryl-9-glycosylpurines and use thereof” (UNIVERZITA PALACKEHO V OLOMOUCI, priority 2014, dated 2018).

Assays:
[1] = system: Vaccinia virus and Herpes simplex virus; details: cited from earlier work
[2] = system: detached leaf segments of Triticum aestivum cv. Hereward; experiment: Senescence bioassay on wheat leaf segments (chlorophyll retention); details: for activity (%) [10^−4 mol · l^−1 BAP = 100%]: chlorophyll retention at maximum effective concentration, 96 h dark
Procedure: Seeds of winter wheat, Triticum aestivum cv. Hereward, were washed under running water for 24 hours and then sown on vermiculite soaked with Knop's solution. They were placed in the growth chamber at 25° C. with a 16/8 h light period at 50 μmol·m^−2·s^−1. After 7 days, the first leaf was fully developed and the second leaf had started to grow. A tip section of the first leaf, approximately 35 mm long, was removed from 5 seedlings and trimmed slightly to a combined weight of 100 mg. The basal ends of the five leaf tips were placed in the wells of a microtiter polystyrene plate containing 150 μL, of the tested derivative solution each. The entire plate was inserted into a plastic box lined with paper tissues soaked in distilled water to prevent leaf sections from drying out. After 96 h incubation in the dark at 25° C., the leaves were removed and chlorophyll extracted by heating at 80° C. for 10 min in 5 mL of 80% ethanol (v/v). The sample volume was then restored to 5 mL by the addition of 80% ethanol (v/v). The absorbance of the extract was recorded at 665 nm. In addition, chlorophyll extracts from fresh leaves and leaf tips incubated in deionised water were measured. The results are means of five replicates and the entire test was repeated twice. […] The compounds to be tested were dissolved in dimethylsulfoxide (DMSO) and the solution brought up to 10^−3M with distilled water. This stock solution was further diluted with the respective media used for the biotest to a concentration ranging from 10^−8M to 10^−4M. […] The activity obtained for 10^−4 M of BAP was postulated as 100%.

breast cancer (MCF-7) = experiment: Calcein AM cytotoxicity assay, MCF-7; format: cell-based; details: 72 hrs
Source text: (§1) One of the parameters used as the base for cytotoxic analysis is metabolic activity of viable cells, such as microtiter assay, which uses the Calcein AM, is now widely used to quantitate cell proliferation and cytotoxicity. The quantity of reduced Calcein AM corresponds to the number of viable cells in culture. The cell lines of breast cancer (MCF-7), mousse fibroblasts (NIH3T3), human erythromleukemia (K562) were used for routine screening of cytotoxicity of the compounds. The cells were maintened in Nunc/Corning 80 cm^2 plastic bottles and grown in media for cell culture (DMEM containing 5 g/l of glucose, 2 mM of glutamin, 100 U/ml of penicilin, […] of streptomycin, 10% of fetal bovine serum and sodium hydrogencarbonate). Cell suspensions were diluted according to cell types and according to expected final cell density (10^4 of cells per well according to characteristics of cell growth), pipetted 80 μl of cell suspension on 96-well microtiter plates. Innoculates were stabilized by 24 hrs preincubation at 37° C. in CO2. Particular concentrations of tested compounds were added in time zero as 20 μl aliquotto wells of microtiter plates. Usually, the compounds were diluted into six concentrations in four-fold dilution series. In routine testing, the highest well concentration was 166.7 μM, of change dependent on the substance. All drug concentrations were examined in duplicates. The incubation of cells with tested derivatives lasted 72 hrs at 37° C., 100% humidity and in the atmosphere of CO2. At the end of the incubation period, the cells were tested and analysed according to the addition of Calcein AM (Molecular probes) solution and the incubation lasted for next 1 hour. Fluorescence (FD) was measured using Labsystem FIA reader Fluorskan Ascent (Microsystems). The survival of tumor cells (The tumor cell survival-TCS) was counted according to equation: […]=(FDwell with derivative/FDcontrol well)×100%. The value of GI50, that is equal to the concentration of compound at which 50% of tumour cells are terminated. To evaluate the antitumor activity was tested toxicity of new derivatives on panel of cell lines of different histogenetic and species origin (Tab. 7, G150 concentration given in μM). […] Effective derivatives killed tumor cells in concentrations close to 0.1 to 50. None of the newly prepared compounds only reached the value.

[3] = system: human erythromleukemia (K562); experiment: Calcein AM cytotoxicity assay, K562; format: cell-based; details: 72 hrs
Source text: as §1

[4] = system: mousse fibroblasts (NIH3T3); experiment: Calcein AM cytotoxicity assay, NIH3T3; format: cell-based, mouse; details: 72 hrs
Source text: as §1

[5] = system: skin fibroblasts BJ and keratinocytes HaCaT; experiment: MTT in vitro cytotoxicity test for skin cells; format: cell-based; details: for IC50: Homo sapiens, MTT, 72 hour treatment, BJ and HaCaT, maximal concentration 50 microM
Procedure: MTT assay is a standard test of toxicity based on photometric measurement of the ability of metabolically active cells to reduce MTT (3-(4,5-dimethylthiazol-2-yl)-2,5-diphenyltetrazolium bromide). Using the assay, the effects of 72 hour treatments with several concentrations of the compounds (sixfold dilution, maximal concentration=50 microM) on viability of skin fibroblasts BJ and keratinocytes HaCaT were evaluated. About 5,000 cells were seeded per well of a 96-well plate 24 hours before the treatment. DMSO vehiculum was used as a negative control. After 72 hour treatment, new medium with MTT (Sigma, M2128) was added to a final concentration of 0.5 mg/ml. After 3 hours, medium was removed and resulting formazan in the cells was dissolved in DMSO. The absorbance was measured at 570 nm (640 nm reference wavelength). The IC50 values were calculated from the dose-response curves. 6-Benzylaminopurine riboside and 6-furfurylaminopurine riboside were used as positive controls they were toxic in the MTT test.

[6] = Calcein AM cytotoxicity assay, MCF-7; format: cell-based; details: human, MCF-7 breast cancer cells
Source text: as §1

[7] = Calcein AM cytotoxicity assay, K562; format: cell-based, human; details: human, K562 erythroleukemia cells
Source text: as §1

[8] = Calcein AM cytotoxicity assay, NIH3T3; format: cell-based, mouse; details: mouse, NIH3T3 fibroblasts
Source text: as §1

[9] = system: Vaccinia virus, strain IHD; details: cited from earlier work
[10] = system: skin fibroblasts BJ and keratinocytes HaCaT; experiment: SRB in vitro toxicity test; format: cell-based; details: Homo sapiens, 72 hour treatment, maximal concentration 50 microM
Procedure: SRB (sulforhodamine B) assay is a standard toxicity test based on a photometric measurement of the cellular protein content after the staining with sulphorhodamine B. Using the assay, the effects of 72 hour treatments with several concentrations of the compounds (sixfold dilution, maximal concentration=50 microM) on viability of skin fibroblasts BJ and keratinocytes HaCaT were evaluated. About 5,000 cells were seeded per well of a 96-well plate 24 hours before the treatment. DMSO vehiculum was used as a negative non-toxic control. 6-benzylaminopurine riboside a 6-furfurylaminopurin riboside were used as positive toxic controls. After three days the medium was removed and the cells fixed with 10% (wt/vol) trichloroacetic acid. After the extensive washing in distilled water, 0.4% (wt/vol) solution of SRB in acetic acid was added and the fixed cells were stained for 30 minutes. The unbound stain was washed away by distilled water and the bound SRB was solubilized in unbuffered 10 mM Tris base. Absorbance was measured at 564 nm. IC50 values were calculated from dose-response curves.

[11] = system: EpiDERM 3D model of epidermis; experiment: In vitro test of skin irritation in EpiDERM; format: cell-based
Procedure: EpiDERM™ is a 3D model of epidermis manufactured by Mattek company. The effects of tested substances are evaluated by MTT. 2 solutions (2 application forms) of the compounds 6-furfurylamino-9-β-D-arabinofuranosylpurine and 6-(3-methoxybenzylamino)-9-β-D-arabinofuranosylpurine in concentrations 1 mM a 200 microM in 0.5% DMSO/99.5% PBS were evaluated according to a standard protocol “INVITRO EpiDerm™ SKIN IRRITATION TEST”. After a preincubation of the tissues, 30 microliters of the application form solution were applied on the individual tissues. The exposition time was 60 minutes. Three tissues were used for each tested concentration as well as for controls. Following washing out of the applied solution, the tissues were incubated for 42 hour in order to allow a reparation of possible damage. In the next step, the tissue was incubated with MTT for 3 hours. The resulting formazan was extracted to isopropanol. Relative viability of the individual tissues was calculated as a percentage of viability of the average of the negative controls. Average viability of the tissues treated with 1 mM solution of the test substance was 99.3% for the compound 6-(3-methoxybenzylamino)-9-β-D-arabinofuranosylpurine and 98.0% for the compound 6-(furfurylamino)-9-β-D-arabinofuranosylpurine where 100% is an average viability of the tissues treated with the solvent only. None of the tested compounds in any of the concentrations caused any tissue damage or irritation. The compounds were evaluated as non-irritant in the tested concentrations.

Cc1cccc(CNc2ncnc3c2ncn3C2OC(CO)C(O)C2O)c1C (centres unmarked) [2,3-dimethylbenzyl]
activity in killing Vaccinia virus and Herpes simplex virus [1]: No effect

Cc1ccc(CNc2ncnc3c2ncn3[C@@H]2O[C@H](CO)[C@@H](O)[C@@H]2O)cc1C [3,4-dimethylbenzyl]
activity in killing Vaccinia virus and Herpes simplex virus [1]: No effect

OC[C@H]1O[C@@H](n2cnc3c(NCc4ccccc4)ncnc32)C[C@@H]1O [6-benzylamino-9-β-D-deoxyribosylpurine]
maximum effective concentration ([2]; 96 h in the dark at 25° C.): 10^−4 mol · l^−1
activity (%) [10^−4 mol · l^−1 BAP = 100%] [2]: 178 ± 9%
GI50 (breast cancer (MCF-7)): > 100 µM
GI50 [3]: > 100 µM
GI50 [4]: > 100 µM

OC[C@H]1OC(n2cnc3c(NCc4ccccc4)ncnc32)[C@H](O)[C@@H]1O (some centres unmarked) [6-benzylaminopurin9-ribosylpurine, 6-benzylamino-9-ribosylpurine, reference compound]
IC50 [5]: ≤ 3 µM
toxicity in the MTT test ([5]; positive controls): toxic
GI50 at 72 h [6]: 5.4 µM
GI50 at 72 h [7]: 5.5 µM
GI50 at 72 h [8]: 39 µM

Cc1ccc(C)c(CNc2ncnc3c2ncn3C2OC(CO)C(O)C2O)c1 (centres unmarked) [2,5-dimethylbenzyl]
activity against Vaccinia virus, strain IHD [9]: low activity

OC[C@H]1O[C@@H](n2cnc3c(NCc4cccc(F)c4)ncnc32)[C@@H](O)[C@@H]1O [6-(3-fluorobenzylamino)-9-β-D-arabinofuranosylpurine]
activity (%) [10^−4 mol · l^−1 BAP = 100%] [2]: 195 ± 6%
GI50 at 72 h [6]: > 100 µM
GI50 at 72 h [7]: > 100 µM
GI50 at 72 h [8]: > 100 µM

OC[C@H]1O[C@@H](n2cnc3c(NCc4ccco4)ncnc32)[C@@H](O)[C@@H]1O [6-furfurylamino-9-β-D-arabinofuranosylpurine]
IC50 [5]: > 50 µM
IC50 [10]: > 50 µM
skin irritation evaluation ([11]; 1 mM and 200 microM in 0.5% DMSO/99.5% PBS): non-irritant
Average viability of the tissues ([11]; 1 mM solution, 60 minutes exposition, 100% = solvent only): 98.0%
activity (%) [10^−4 mol · l^−1 BAP = 100%] [2]: 193 ± 1%
GI50 at 72 h [6]: > 100 µM
GI50 at 72 h [7]: > 100 µM
GI50 at 72 h [8]: > 100 µM

Cc1ccc(CNc2ncnc3c2ncn3C2OC(CO)C(O)C2O)c(C)c1 (centres unmarked) [2,4-dimethylbenzyl]
activity against Vaccinia virus, strain IHD [9]: low activity

Cc1cccc(C)c1CNc1ncnc2c1ncn2[C@@H]1O[C@H](CO)[C@@H](O)[C@@H]1O [2,6-dimethylbenzyl]
activity in killing Vaccinia virus and Herpes simplex virus [1]: No effect

Cc1cccc(CNc2ncnc3c2ncn3[C@@H]2O[C@H](CO)[C@@H](O)[C@@H]2O)c1 [3-methylbenzylamino-9-β-D-arabinofuranosylpurine]
GI50 (breast cancer (MCF-7)): > 100 µM
GI50 [3]: > 100 µM
GI50 [4]: > 100 µM
activity in killing Vaccinia virus and Herpes simplex virus [1]: No effect

OC[C@H]1O[C@@H](n2cnc3c(NCc4cccc(Cl)c4)ncnc32)[C@@H](O)[C@@H]1O [6-(3-chlorobenzylamino)-9-β-D-arabinofuranosylpurine]
IC50 [5]: > 50 µM
IC50 [10]: 48 µM
activity (%) [10^−4 mol · l^−1 BAP = 100%] [2]: 172 ± 8%
GI50 at 72 h [6]: > 100 µM
GI50 at 72 h [7]: > 100 µM
GI50 at 72 h [8]: > 100 µM

Cc1ccccc1CNc1ncnc2c1ncn2[C@@H]1O[C@H](CO)[C@@H](O)[C@@H]1O [2-methylbenzylamino-9-β-D-arabinofuranosylpurine]
GI50 (breast cancer (MCF-7)): > 100 µM
GI50 [3]: > 100 µM
GI50 [4]: > 100 µM
activity in killing Vaccinia virus and Herpes simplex virus [1]: No effect

OC[C@H]1O[C@@H](n2cnc3c(NCc4cccc(F)c4)ncnc32)C[C@@H]1O [3-fluorobenzylamino-9-β-D-2′-deoxyribosylpurine]
GI50 (breast cancer (MCF-7)): > 100 µM
GI50 [3]: > 100 µM
GI50 [4]: > 100 µM

3-chloro-4-fluorobenzylamino-9-β-D-arabinofuranosylpurine
GI50 (breast cancer (MCF-7)): > 100 µM
GI50 [3]: > 100 µM
GI50 [4]: > 100 µM

Cc1ccc(CNc2ncnc3c2ncn3[C@@H]2O[C@H](CO)[C@@H](O)[C@@H]2O)cc1 [4-methylbenzylamino-9-β-D-arabinofuranosylpurine]
GI50 (breast cancer (MCF-7)): 95 µM
GI50 [3]: > 100 µM
GI50 [4]: > 100 µM
